Earlier results on nine compounds are cited in US6183992A, “Method for mass production of antimicrobial peptide” (Samyang Genex Corporation, priority 1997, dated 2001).

Ends that are not written are not given here.

The conditions of this data set: Table 1, excerpted from Peptide Science, Vol 37, 105-122 (1995).

For `CC[C@H](C)[C@H](N)C(=O)N[C@@H](CC(C)C)C(=O)N1CCC[C@H]1C(=O)N[C@@H](Cc1c[nH]c2ccccc12)C(=O)N[C@@H](CCCCN)C(=O)N[C@@H](Cc1c[nH]c2ccccc12)C(=O)N1CCC[C@H]1C(=O)N[C@@H](Cc1c[nH]c2ccccc12)C(=O)N[C@@H](Cc1c[nH]c2ccccc12)C(=O)N1CCC[C@H]1C(=O)N[C@@H](Cc1c[nH]c2ccccc12)C(=O)N[C@@H](CCCNC(=N)N)C(=O)N[C@@H](CCCNC(=N)N)C(N)=O` [Indolicidin], the pI is 12.51. As to `CC[C@H](C)[C@H](NC(=O)CN)C(=O)NCC(=O)N[C@@H](C)C(=O)N[C@H](C(=O)N[C@@H](CC(C)C)C(=O)N[C@@H](CCCCN)C(=O)N[C@H](C(=O)N[C@@H](CC(C)C)C(=O)N[C@H](C(=O)N[C@H](C(=O)NCC(=O)N[C@@H](CC(C)C)C(=O)N1CCC[C@H]1C(=O)N[C@@H](C)C(=O)N[C@@H](CC(C)C)C(=O)N[C@H](C(=O)N[C@@H](CO)C(=O)N[C@@H](Cc1c[nH]c2ccccc12)C(=O)N[C@H](C(=O)N[C@@H](CCCCN)C(=O)N[C@@H](CCCNC(=N)N)C(=O)N[C@@H](CCCCN)C(=O)N[C@@H](CCCNC(=N)N)C(=O)N[C@@H](CCC(N)=O)C(=O)N[C@@H](CCC(N)=O)C(N)=O)[C@@H](C)CC)[C@@H](C)CC)[C@@H](C)O)[C@@H](C)O)C(C)C)C(C)C` [Melittin], the pI is on record as 12.53. Consider Apidaecin I, for which the pI is 12.21.

For the compound Bombinin, the pI is recorded as 10.34. In the case of Cercropin A [Ceropin A], the pI is reported as 10.89.

As to GKPRPYSPRPTSHPRPIRV [Drosocin], the pI is recorded as 12.22. Turning to HNP-I [HNP1], the pI is reported as 8.28. As for Magainin (MSI-344), the pI is on record as 11.41.

As for Tachyplesin I, the pI is given as 10.01.
